# Data from patent US20250262223A1, “METHODS FOR THE TREATMENT OF BIOLOGICAL AGING” (BIOVIE INC., priority 2022, published 2025).
# Tests used:
# [1] = Phase 3 trial, metabolic changes and correlations; format: in vivo, human
# Description: Subjects metabolic and correlation changes were analyzed. Many of the genes associated with LOAD (late onset Alzheimer's disease) are related to cholesterol metabolism, which is decreased in AD neuron membranes. Insulin and glycemic controls are known to be involved in neurodegeneration. […] Increased mean amplitude of glycemic excursion (MAGE from CGM) increased risk of Alzheimer's disease progression. Leptin is an anti-inflammatory, neuroprotective and is decreased in AD. […] The results are described in Tables 4 and 5.
# FIGS. 17A-17C illustrates graphs representing increased fasting insulin and HOMA2-% B with decreased HOMA2-% S w/o hypoglycemia. Table 10 provides additional information regarding the fasting insulin and HOMA2-% B with decreased HOMA2-% S w/o hypoglycemia.
# CpGs (DNA methylation) = assay: Illumina 850K array DNA methylation changes following 14 weeks of bezisterim treatment; format: in vivo, human; conditions: for decrease in DNAm: 14 weeks
# Description: In this study, 23 mild cognitive impaired (“MCI”) and Alzheimer's disease (“AD”) subjects were enrolled based on Clinical Dementia Rating (“CDR”) from their Quick Dementia Rating System (“QDRS”) scale. Advanced MRI imaging (ASL, BOLD, MRS, task-based fMRI) was also performed as well as cognition and memory tests were performed (Cog12, MM SE, QDRS, MoCA). Biomarkers of the subjects were also taken (csf p-Tau, A beta, and plasma TNF) and episome analyses were performed. Finally, a biological clock analysis was performed (DNA methylation profiling).
# Illumina® 850K array DNA methylation changes following 14 weeks of bezisterim treatment were sorted and the top 400 decreased CpGs (decreases >50%) were explored for correlations with changes in clinical results following treatment. Of these, 366 have CpG gene identifications.
# [2] = tested on: extracellular signal-regulated kinase; conditions: cited from earlier work
# [3] = Phase 3 imaging sub-study FDG-PET; format: in vivo, human; conditions: subjects with a baseline whole cortex suvr <1.29; blinded Phase 3 data, NE3107 and placebo pooled
# Description: Subjects were analyzed using a fluorodeoxyglucose (FDG)-positron emission tomography (PET) imaging scans. FDG-PET standardized uptake value ratios (“suvr”) were increased in 14/24 subjects with a baseline whole cortex suvr <1.29. […] Cholesterol increases trended with increased Cingulate suvr. The results are described in Table 7 and FIG. 15.
# [4] = Phase 3 imaging sub-study vMRI; format: in vivo, human; conditions: 23 subjects; blinded Phase 3 data, NE3107 and placebo pooled
# Description: Subjects were analyzed using imaging sub-studies vMRI on 23 subjects. It was observed that the volume was increased in the hippocampus and amygdala. In addition, it was observed a decreased CGIC was correlated with decreased hippocampi volume and increased MCP-1 was correlated with increased whole cortex. The results are described in FIGS. 14A-14B and Table 6.
# [5] = tested on: ERK- and NF-κB-stimulated inflammatory mediators, including TNF-α; conditions: without inhibiting their homeostatic functions; cited from earlier work
# [6] = tested on: p-IKK beta, p-ERK, p-P38 and p-JNK (Tau phosphorylation); assay: in vitro samples: activation of inflammatory kinases and p-Tau; format: cell-based
# From the text: Without wishing to be bound by theory, it is believed that 17α-ethynylandrost-5-ene-3β,7β,17β-triol binds to ERK 1 and ERK 2, which decreases inflammatory activation of p-IKK beta, p-JNK, p-ERK and p-P38, thereby decreasing serine IRS1 phosphorylation, restoring tyrosine IRS1 phosphorylation and insulin sensitivity.
# Phase 3 adverse effects = format: in vivo
# [7] = Phase 3 neuropsychiatric inventory; format: in vivo, human; conditions: blinded Phase 3 data, NE3107 and placebo pooled
# Description: Subjects were analyzed for neuropsychiatric inventory. […] An improvement in appetite was also correlated with decreased Cog12, CDR SB and ADCOMS, with increased Alzheimer's disease. A decrease in anxiety was correlated with an increase ADL and decreased CGIC. Sleep improvement was correlated with a decrease in CGIC and decreased in TNFα. The results are described in Table 8 and FIGS. 16A-16B.
# [8] = cited from earlier work
# [9] = P < 0.0001, blinded Phase 3 data, NE3107 and placebo pooled
# [10] = blinded Phase 3 data, NE3107 and placebo pooled
smiles,measurement,setting,value
"C#C[C@]1(O)CC[C@H]2[C@@H]3[C@@H](O)C=C4C[C@@H](O)CC[C@]4(C)[C@H]3CC[C@@]21C [NE3107, 17α-ethynylandrost-5-ene-3β,7β,17β-triol]",Hypoglycemia,"[1]; Increased Fasting Insulin: No, blinded Phase 3 data",2
same,Hypoglycemia,"[1]; Increased Fasting Insulin: Yes, blinded Phase 3 data",0
same,"HOMA2-% B, Change from Baseline",[1]; [9],"+13.5%, *"
same,"HOMA2-% S, Change from Baseline",[1]; [9],"−21.2%, *"
same,"Insulin, Change from Baseline",[1]; [9],"+1.9 μlU/mL,*"
same,"Cholesterol, Change from Baseline",[1]; [10],+3.0 mg/dL
same,"Leptin, V10 median",[1]; [10],29.2 ng/mL
same,Leptin DNAm,[1]; in vivo,increase
same,"MAGE, Change from Baseline","[1]; mean amplitude of glycemic excursion from CGM, blinded Phase 3 data, NE3107 and placebo pooled",-0.57 mg/dL
same,Hypoglycemia,"[1]; with increased insulin and HOMA2-% B and decreased HOMA2% insulin sensitivity, blinded Phase 3 data",no cases of hypoglycemia
same,DNA methylation decrease of the top 400 decreased CpGs,CpGs (DNA methylation); 14 weeks of treatment,> 50%
same,decrease in DNAm,CpGs (DNA methylation); HLA-L,56%
same,decrease in DNAm,CpGs (DNA methylation); KCNQ1DN,51%
same,decrease in DNAm,CpGs (DNA methylation); SLC26A1,55%
same,binding to extracellular signal-regulated kinase,[2],binds
same,subjects with increased FDG-PET standardized uptake value ratios (suvr),[3],14/24
same,vMRI amygdala volume,[4],increased
same,vMRI hippocampus volume,[4],increased
same,"inhibition of inflammation-driven ERK- and NF-κB-stimulated inflammatory mediators, including TNF-α",[5],selectively inhibit
same,Akt inhibition of GSK 3beta,[6],increased Akt inhibition of GSK 3beta
same,"activation of inflammatory p-IKK beta, p-ERK, p-P38 and p-JNK",[6]; in vitro samples,decreased activation
same,p-Tau,[6]; in vitro samples,decreased p-Tau
same,subjects discontinued due to a reported AE,"Phase 3 adverse effects; 10 subjects of 439 enrolled, blinded, NE3107 and placebo pooled",2.3%
same,serious AEs,"Phase 3 adverse effects; 12, blinded, NE3107 and placebo pooled",2.7%
same,related AEs,"Phase 3 adverse effects; 43, blinded, NE3107 and placebo pooled",9.8%
same,subjects who experienced 1 or more AEs,"Phase 3 adverse effects; 156 of 439 subjects, blinded, NE3107 and placebo pooled",35.5%
same,serious AEs that resulted in death,"Phase 3 adverse effects; count, not known whether on IP or placebo",1
same,"neuropsychiatric inventory, overall improvement in sleep",[7]; p<0.0001,−1.0
same,"neuropsychiatric inventory, overall improvement in appetite",[7]; p<0.023,−1.0
same,blood-brain permeability,[8],blood-brain permeable
